Experimental data reported in US9458181B2, “Cathepsin cysteine protease inhibitors” (Merck Sharp & Dohme Corp., priority 2013, dated 2016).

Columns and labels:
[1] = target: human cathepsin K (UniProt P43236); assay: Cathepsin K Assay (hrbCat K); type: biochemical; conditions: human cathepsin K 0.4 nM, Z-Leu-Arg-AMC 8 μM, pH 5.5, 15 min preincubation; read-out: hrbCat K IP
Outline: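 Human cathepsin K (0.4 nM) in pH 5.5 MES buffer with EDTA, DTT and 10% DMSO was preincubated 15 min at room temperature with compound from a ⅓ dilution series (500-0.025 μM DMSO stocks). Z-Leu-Arg-AMC (8 μM) was then added, and AMC release was followed fluorometrically (Ex 360/Em 460 nm) for 30 min; inhibition was fitted to a dose-response model.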

[2] = target: T1, human cathepsin F (Homo sapiens, UniProt Q9UBX1); assay: Cathepsin F assay (hCat F); type: biochemical; conditions: human cathepsin F 10 nM, Z-Phe-Arg-AMC 8 μM, pH 5.5, 15 min preincubation; read-out: hCat F IP
T1 sequence (Q9UBX1 271-484): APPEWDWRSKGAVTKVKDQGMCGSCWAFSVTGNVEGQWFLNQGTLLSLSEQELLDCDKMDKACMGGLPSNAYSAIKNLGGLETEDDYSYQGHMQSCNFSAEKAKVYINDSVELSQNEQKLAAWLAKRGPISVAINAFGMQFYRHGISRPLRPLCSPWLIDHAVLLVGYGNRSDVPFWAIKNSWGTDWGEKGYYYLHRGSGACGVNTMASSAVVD
Outline: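 Fluorogenic read-out: cleavage of Z-Phe-Arg-AMC (8 μM in added buffer) was followed at Ex 360/Em 460 nm for 20 min, with dose-response fitting of percent inhibition. Before substrate addition, 10 nM human enzyme was incubated 15 min at room temperature with compounds (DMSO stocks 500–0.025 μM) in pH 5.5 MES/EDTA/DTT buffer containing 10% DMSO.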

Row | IC50 [1] [nM] | IC50 [2] [nM] | Compound
1 | 1.17 | 775 | N#CC1(NC(=O)[C@@H]2CCCC[C@H]2c2oc(-c3cncc(Cl)c3)nc2-c2ccc(N3CCS(=O)(=O)CC3)cc2)CC1 [Example 95, (1R,2R)-2-(2-(5-chloropyridin-3-yl)-4-(4-(1,1-dioxidothiomorpholino)phenyl)oxazol-5-yl)-N-(1-cyanocyclopropyl) cyclohexanecarboxamide]
2 | 0.87 | 363 | N#CC1(NC(=O)[C@@H]2CCCC[C@H]2c2oc(-c3ccccc3OC(F)F)nc2-c2ccc(N3CCS(=O)(=O)CC3)cc2)CC1 [Example 96, (1R,2R)-N-(1-cyanocyclopropyl)-2-(2-(2-(difluoromethoxy)phenyl)-4-(4-(1,1-dioxidothiomorpholino)phenyl)oxazol-5-yl)cyclohexanecarboxamide]
3 | 2.83 | 2550 | N#CC1(NC(=O)[C@@H]2CCCC[C@H]2c2oc(-c3cccnn3)nc2-c2ccc(N3CCS(=O)(=O)CC3)cc2)CC1 [Example 97, (1R,2R)-N-(1-cyanocyclopropyl)-2-(4-(4-(1,1-dioxidothiomorpholino)phenyl)-2-(pyridazin-3-yl)oxazol-5-yl)cyclohexanecarboxamide]
4 | 1.43 | 2310 | N#CC1(NC(=O)[C@@H]2CCCC[C@H]2c2oc(C3C4CC3C4)nc2-c2ccc(N3CCS(=O)(=O)CC3)cc2)CC1 (stereo partly drawn) [Example 98, (1R,2R)-2-(2-(bicyclo[1.1.1]pentan-2-yl)-4-(4-(1,1-dioxidothiomorpholino)phenyl)oxazol-5-yl)-N-(1-cyanocyclopropyl) cyclohexanecarboxamide]
5 | 1.89 | 2230 | CC1(c2nc(-c3ccc(N4CCS(=O)(=O)CC4)cc3)c([C@@H]3CCCC[C@H]3C(=O)NC3(C#N)CC3)o2)CCOCC1 [Example 99, (1R,2R)-N-(1-cyanocyclopropyl)-2-(4-(4-(1,1-dioxidothiomorpholino)phenyl)-2-(4-methyltetrahydro-2H-pyran-4-yl)oxazol-5-yl)cyclohexanecarboxamide]
6 | 4.11 | 2860 | N#CC1(NC(=O)[C@@H]2CCCC[C@H]2c2oc(-c3cccc(C(F)(F)F)n3)nc2-c2ccc(N3CCS(=O)(=O)CC3)cc2)CC1 [Example 100, (1R,2R)-N-(1-cyanocyclopropyl)-2-(4-(4-(1,1-dioxidothiomorpholino)phenyl)-2-(6-(trifluoromethyl)pyridin-2-yl)oxazol-5-yl)cyclohexanecarboxamide]
7 | 0.88 | 377 | N#CC1(NC(=O)[C@@H]2CCCC[C@H]2c2oc(-c3ccc(C4CC4)cc3)nc2-c2ccc(N3CCS(=O)(=O)CC3)cc2)CC1 [Example 101, (1R,2R)-N-(1-cyanocyclopropyl)-2-(2-(4-cyclopropylphenyl)-4-(4-(1,1-dioxidothiomorpholino)phenyl)oxazol-5-yl)cyclohexanecarboxamide]
8 | 54.5 | 416 | N#CC1(NC(=O)[C@@H]2CCCC[C@H]2c2oc(-c3ccc(F)cc3)nc2-c2ccc(N3CCS(=O)(=O)CC3)c(Br)c2)CC1 [Example 102, (1R,2R)-2-(4-(3-bromo-4-(1,1-dioxidothiomorpholino)phenyl)-2-(4-fluorophenyl)oxazol-5-yl)-N-(1-cyanocyclopropyl) cyclohexanecarboxamide]
9 | 1.35 | 1840 | Cc1ncc(-c2nc(-c3ccc(N4CCS(=O)(=O)CC4)cc3)c([C@@H]3CCCC[C@H]3C(=O)NC3(C#N)CC3)o2)cn1 [Example 103, (1R,2R)-N-(1-cyanocyclopropyl)-2-(4-(4-(1,1-dioxidothiomorpholino)phenyl)-2-(2-methylpyrimidin-5-yl)oxazol-5-yl)cyclohexanecarboxamide]
10 | 2.4 | 1920 | N#Cc1ccccc1-c1nc(-c2ccc(N3CCS(=O)(=O)CC3)cc2)c([C@@H]2CCCC[C@H]2C(=O)NC2(C#N)CC2)o1 [Example 105, (1R,2R)-N-(1-cyanocyclopropyl)-2-(2-(2-cyanophenyl)-4-(4-(1,1-dioxidothiomorpholino)phenyl)oxazol-5-yl)cyclohexanecarboxamide]
11 | 1.59 | 192 | N#CC1(NC(=O)[C@@H]2CCCC[C@H]2c2oc(-c3ccc(F)cc3F)nc2-c2ccc(N3CCS(=N)(=O)CC3)cc2)CC1 [Example 106, (1R,2R)-N-(1-cyanocyclopropyl)-2-(2-(2,4-difluorophenyl)-4-(4-(1-imino-1-oxidothiomorpholino)phenyl)oxazol-5-yl)cyclohexanecarboxamide]
12 | 2.31 | 1290 | C[C@@H]1CC(F)(F)CC[C@@H]1c1nc(-c2ccc(N3CCS(=O)(=O)CC3)cc2)c([C@@H]2CCCC[C@H]2C(=O)NC2(C#N)CC2)o1 [Example 107, (1R,2R)-N-(1-cyanocyclopropyl)-2-(2-((1S,2R)-4,4-difluoro-2-methylcyclohexyl)-4-(4-(1,1-dioxidothiomorpholino)phenyl)oxazol-5-yl)cyclohexanecarboxamide]
13 | 2.08 | 1390 | C[C@H]1CC(F)(F)CC[C@@H]1c1nc(-c2ccc(N3CCS(=O)(=O)CC3)cc2)c([C@@H]2CCCC[C@H]2C(=O)NC2(C#N)CC2)o1 [Example 108, (1R,2R)-N-(1-cyanocyclopropyl)-2-(2-((1S,2S)-4,4-difluoro-2-methylcyclohexyl)-4-(4-(1,1-dioxidothiomorpholino)phenyl)oxazol-5-yl)cyclohexanecarboxamide]
14 | 1.1 | 931 | N#CC1(NC(=O)[C@@H]2CCCC[C@H]2c2oc(C3(C(F)(F)F)CC3)nc2-c2ccc(N3CCS(=O)(=O)CC3)cc2)CC1 [Example 110, (1R,2R)-N-(1-cyanocyclopropyl)-2-(4-(4-(1,1-dioxidothiomorpholino)phenyl)-2-(1-(trifluoromethyl)cyclopropyl)oxazol-5-yl)cyclohexanecarboxamide]
15 | 0.73 | 126 | N#CCNC(=O)[C@@H]1CCCC[C@H]1c1oc(-c2ccc(F)cc2)nc1-c1ccc(N2CCS(=O)(=O)CC2)cc1 [Example 112, (1R,2R)-N-(cyanomethyl)-2-(4-(4-(1,1-dioxidothiomorpholino)phenyl)-2-(4-fluorophenyl)oxazol-5-yl)cyclohexanecarboxamide]
16 | 4.21 | 2450 | CC1(C)C(c2nc(-c3ccc(N4CCS(=O)(=O)CC4)cc3)c([C@@H]3CCCC[C@H]3C(=O)NC3(C#N)CC3)o2)C1(C)C [Example 113, (1R,2R)-N-(1-cyanocyclopropyl)-2-(4-(4-(1,1-dioxidothiomorpholino)phenyl)-2-(2,2,3,3-tetramethylcyclopropyl)oxazol-5-yl)cyclohexanecarboxamide]
17 | 1.34 | 1770 | CC(C)(c1nc(-c2ccc(N3CCS(=O)(=O)CC3)cc2)c([C@@H]2CCCC[C@H]2C(=O)NC2(C#N)CC2)o1)C(F)(F)F [Example 115, (1R,2R)-N-(1-cyanocyclopropyl)-2-(4-(4-(1,1-dioxidothiomorpholino)phenyl)-2-(1,1,1-trifluoro-2-methylpropan-2-yl)oxazol-5-yl)cyclohexanecarboxamide]
18 | 1.04 | 306 | N#CC1(NC(=O)[C@@H]2CC(F)(F)CC[C@H]2c2oc(C(F)(F)C(F)(F)F)nc2-c2ccc(C(=O)N3CCOCC3)cc2)CC1 [Example 119, (1R,2R)-N-(1-cyanocyclopropyl)-5,5-difluoro-2-(4-(4-(morpholine-4-carbonyl)phenyl)-2-(perfluoroethyl)oxazol-5-yl)cyclohexanecarboxamide]
19 | 48.5 | ≥ 10000 | N#C[C@H](NC(=O)[C@@H]1CCCC[C@H]1c1oc(-c2ccc(F)cc2)nc1-c1ccc(N2CCS(=O)(=O)CC2)cc1)C1CCOCC1 [Example 127, (1R,2R)-N-((R)-cyano(tetrahydro-2H-pyran-4-yl)methyl)-2-(4-(4-(1,1-dioxidothiomorpholino)phenyl)-2-(4-fluorophenyl)oxazol-5-yl)cyclohexanecarboxamide]
20 | 1.94 | 692 | N#C[C@@H](NC(=O)[C@@H]1CCCC[C@H]1c1oc(-c2ccc(F)cc2)nc1-c1ccc(N2CCS(=O)(=O)CC2)cc1)C1CCOCC1 [Example 128, (1R,2R)-N-((S)-cyano(tetrahydro-2H-pyran-4-yl)methyl)-2-(4-(4-(1,1-dioxidothiomorpholino)phenyl)-2-(4-fluorophenyl)oxazol-5-yl)cyclohexanecarboxamide]
21 | 9.12 | 3930 | CS(=O)(=O)N1CCN(C(=O)c2ccc(-c3nc(-c4ccc(F)cc4F)oc3[C@@H]3CCCC[C@H]3C(=O)NC3(C#N)CC3)cc2)CC1 [Example 129, (1R,2R)-N-(1-cyanocyclopropyl)-2-(2-(2,4-difluorophenyl)-4-(4-(4-(mcthylsulfonyl)piperazine-1-carbonyl)phenyl)oxazol-5-yl)cyclohexanecarboxamide]
22 | 1.25 | 70 | N#CC1(NC(=O)[C@@H]2CCCC[C@H]2c2oc(C(F)(F)c3ccccc3)nc2-c2ccc(N3CCS(=O)(=O)CC3)cc2)CC1 [Example 130, (1R,2R)-N-(1-cyanocyclopropyl)-2-(2-(difluoro(phenyl)methyl)-4-(4-(1,1-dioxidothiomorpholino)phenyl)oxazol-5-yl)cyclohexanecarboxamide]
